How the values were obtained:
Experiment in all cases: Bliss excess, mean over the matrix (fraction); higher = more synergy
[1] = tested on: MFE-280 (Endometrial Carcinoma)
Summary of the method: (§1)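 Cell lines grown in DMEM/F12 or RPMI with 10% FBS were plated in 1536-well plates and held 24 hours at 37°C, 5% CO2 before 72 hours of exposure to two-drug dose matrices, with DMSO typically at 0.2%. CellTiter-Glo 2.0 luminescence gave viability, which was converted to inhibition. Vehicle wells were set to 0 and blank wells to 1. Combination Emax is the second-highest inhibition in the matrix, and Bliss excess is the observed combination effect minus the expected EA + EB − EA·EB, where EA and EB are the single-agent effects.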

IST-MES1 (Mesothelioma) = tested on: IST-MES1 (Mesothelioma)
Summary of the method: as §1

[2] = tested on: VAL (B-Cell Non-Hodgkin's Lymphoma)
Summary of the method: as §1

A2058 (Melanoma) = tested on: A2058 (Melanoma)
Summary of the method: as §1

[3] = tested on: PSN1 (Pancreatic Carcinoma)
Summary of the method: as §1

SF539 (Glioblastoma) = tested on: SF539 (Glioblastoma)
Summary of the method: as §1

[4] = tested on: LXF-289 (Lung Adenocarcinoma)
Summary of the method: as §1

WM278 (Melanoma) = tested on: WM278 (Melanoma)
Summary of the method: as §1

[5] = tested on: RKN (Other Solid Carcinomas)
Summary of the method: as §1

[6] = tested on: SHP-77 (Small Cell Lung Carcinoma)
Summary of the method: as §1

[7] = tested on: NCI-H446 (Small Cell Lung Carcinoma)
Summary of the method: as §1

[8] = tested on: NCI-H23 (Lung Adenocarcinoma)
Summary of the method: as §1

[9] = tested on: OVMIU (Ovarian Carcinoma)
Summary of the method: as §1

[10] = tested on: HCT-15 (Colorectal Carcinoma)
Summary of the method: as §1

[11] = tested on: GP5d (Colorectal Carcinoma)
Summary of the method: as §1

[12] = tested on: LK-2 (Squamous Cell Lung Carcinoma)
Summary of the method: as §1

[13] = tested on: L-1236 (Hodgkin's Lymphoma)
Summary of the method: as §1

[14] = tested on: MKN45 (Gastric Carcinoma)
Summary of the method: as §1

[15] = tested on: 23132-87 (Gastric Carcinoma)
Summary of the method: as §1

GB-1 (Glioblastoma) = tested on: GB-1 (Glioblastoma)
Summary of the method: as §1

Row | Structure (SMILES) | Bliss excess [1] | Bliss excess (IST-MES1 (Mesothelioma)) | Bliss excess [2] | Bliss excess (A2058 (Melanoma)) | Bliss excess [3] | Bliss excess (SF539 (Glioblastoma)) | Bliss excess [4] | Bliss excess (WM278 (Melanoma)) | Bliss excess [5] | Bliss excess [6] | Bliss excess [7] | Bliss excess [8] | Bliss excess [9] | Bliss excess [10] | Bliss excess [11] | Bliss excess [12] | Bliss excess [13] | Bliss excess [14] | Bliss excess [15] | Bliss excess (GB-1 (Glioblastoma))
1 | Cc1c2c(nn1C)CSCc1cc(n(C)n1)CSc1cc(c3ccccc3c1)OCCCc1c(C(=O)O)n(C)c3c-2c(Cl)ccc13 [AZD5991] + CC1(C)CCC(CN2CCN(c3ccc(C(=O)NS(=O)(=O)c4ccc(NCC5CCOCC5)c([N+](=O)[O-])c4)c(Oc4cnc5[nH]ccc5c4)c3)CC2)=C(c2ccc(Cl)cc2)C1 [Venetoclax] (first compound max 1 µM, 7x7, partner max 1 µM) | -0.0225 | -0.0239 | 0.0963 | 0.0967 | -0.0873 | 0.0187 | 0.0108 | -0.0393 | -0.0337 | 0.0977 | 0.117 | -0.0077 | -0.0207 | -0.0087 | -0.0134 | 0.0293 | 0.0632 | -0.0206 | 0.0019 | -0.0257
2 | Cc1c2c(nn1C)CSCc1cc(n(C)n1)CSc1cc(c3ccccc3c1)OCCCc1c(C(=O)O)n(C)c3c-2c(Cl)ccc13 [AZD5991] + C[C@@H](Nc1cc(F)cc(F)c1)c1cc(C(=O)N(C)C)cc2c(=O)cc(N3CCOCC3)oc12 [AZD8186] (first compound max 1 µM, 7x7, partner max 3 µM) | 0.0185 | -0.0524 | 0.0426 | 0.119 | -0.0407 | -0.0052 | -0.0127 | 0.0096 | -0.0269 | -0.0379 | 0.183 | -0.0085 | -0.0181 | -0.01 | -0.0645 | 0.0056 | 0.0233 | -0.0777 | -0.0603 | -0.0152
3 | Cc1c2c(nn1C)CSCc1cc(n(C)n1)CSc1cc(c3ccccc3c1)OCCCc1c(C(=O)O)n(C)c3c-2c(Cl)ccc13 [AZD5991] + Cn1cnc2c(F)c(Nc3ccc(Br)cc3Cl)c(C(=O)NOCCO)cc21 [Selumetinib] (first compound max 1 µM, 7x7, partner max 3 µM) | 0.0226 | -0.0466 | -0.0227 | 0.213 | 0.0011 | -0.0344 | 0.0414 | 0.0368 | -0.0147 | 0.0623 | 0.0241 | 0.0495 | -0.0284 | 0.0116 | 0.0017 | -0.0063 | 0 | -0.0643 | 0.0334 | -0.0299
4 | C[C@@H]1COCCN1c1cc(C2([S@](C)(=N)=O)CC2)nc(-c2ccnc3[nH]ccc23)n1 [AZD6738] + O=C(c1cc(Cc2n[nH]c(=O)c3ccccc23)ccc1F)N1CCN(C(=O)C2CC2)CC1 [Olaparib] (first compound max 10 µM, 7x7, partner max 10 µM) | 0.0368 | 0.0228 | -0.0708 | 0.0033 | -0.0122 | -0.0047 | -0.0371 | -0.0488 | -0.007 | 0.0804 | 0.0602 | 0.0049 | -0.0083 | 0.0151 | -0.0092 | 0.0091 | -0.0033 | -0.0683 | 0.0507 | 0.012
5 | Cc1cc2ncnn2cc1Nc1ncc2c(n1)n(C1CCOCC1)c(=O)n2C [AZD7648] + C=CCn1c(=O)c2cnc(Nc3ccc(N4CCN(C)CC4)cc3)nc2n1-c1cccc(C(C)(C)O)n1 [AZD1775] (first compound max 10 µM, partner max 1 µM) | -0.0406 | -0.002 | -0.0919 | 0.0194 | -0.0577 | 0.0049 | -0.0396 | -0.027 | 0.0089 | -0.0798 | -0.0228 | -0.0363 | 0.0747 | -0.055 | -0.0431 | -0.0018 | -0.0686 | -0.0887 | -0.0401 | 0.0089
6 | Cc1cc2ncnn2cc1Nc1ncc2c(n1)n(C1CCOCC1)c(=O)n2C [AZD7648] + CCN(CCO)CCCOc1ccc2c(Nc3cc(CC(=O)Nc4cccc(F)c4)[nH]n3)ncnc2c1 [AZD2811] (first compound max 10 µM, 7x7, partner max 1 µM) | 0.019 | 0.0188 | -0.0799 | 0.01 | -0.0218 | 0.0118 | 0.0397 | -0.0081 | -0.0148 | -0.0244 | -0.0157 | 0.016 | -0.0159 | -0.003 | 0.0648 | -0.0328 | -0.0089 | -0.0635 | -0.0151 | -0.0124
7 | Cc1cc2ncnn2cc1Nc1ncc2c(n1)n(C1CCOCC1)c(=O)n2C [AZD7648] + CN(C)CCCOc1ccc(-c2ccc3ncc4c(c3c2)n(C2CCOCC2)c(=O)n4C)cn1 [AZD0156] (first compound max 10 µM, 7x7, partner max 1 µM) | 0.0058 | -0.0353 | -0.0921 | -0.001 | -0.0413 | 0.0407 | 0.034 | -0.0295 | -0.0352 | -0.0017 | 0.0418 | -0.0031 | -0.0068 | -0.019 | -0.0119 | -0.0036 | 0.0025 | -0.0268 | -0.0108 | -0.0089
8 | Cc1cc2ncnn2cc1Nc1ncc2c(n1)n(C1CCOCC1)c(=O)n2C [AZD7648] + C[C@@H]1COCCN1C2=NC(=NC(=C2)C3(CC3)[S@](=N)(=O)C)C4=C5C=CNC5=NC=C4 [AZD6738] (first compound max 10 µM, 7x7, partner max 10 µM) | 0.0174 | 0.0176 | -0.0813 | 0.024 | -0.0939 | -0.0166 | 0.0315 | 0.0112 | 0.0086 | -0.0139 | 0.0335 | -0.0617 | 0.0527 | -0.0312 | -0.0401 | 0.0147 | 0.0434 | -0.0406 | -0.0027 | -0.017
9 | Cc1cc2ncnn2cc1Nc1ncc2c(n1)n(C1CCOCC1)c(=O)n2C [AZD7648] + O=C(c1cc(Cc2n[nH]c(=O)c3ccccc23)ccc1F)N1CCN(C(=O)C2CC2)CC1 [Olaparib] (first compound max 10 µM, 7x7, partner max 10 µM) | -0.0011 | -0.0592 | 0.0295 | -0.0319 | -0.0315 | -0.0236 | -0.0504 | -0.0309 | -0.021 | -0.0585 | -0.0388 | -0.0059 | -0.0945 | 0.0666 | 0.0009 | -0.0584 | -0.0394 | -0.0106 | 0.003 | -0.0227
10 | NC1(C(=O)N[C@@H](CCO)c2ccc(Cl)cc2)CCN(c2ncnc3[nH]ccc23)CC1 [Capivasertib] + CC(=O)c1c(C)c2cnc(Nc3ccc(N4CCNCC4)cn3)nc2n(C2CCCC2)c1=O [Palbociclib] (first compound max 10 µM, 7x7, partner max 10 µM) | -0.0624 | -0.0632 | -0.0051 | -0.0001 | 0.0408 | -0.0486 | 0.0199 | -0.0217 | -0.0803 | -0.142 | -0.03 | 0.008 | -0.0168 | 0.0152 | -0.018 | 0.0401 | -0.0829 | 0.0256 | -0.0183 | -0.0497
11 | NC1(C(=O)N[C@@H](CCO)c2ccc(Cl)cc2)CCN(c2ncnc3[nH]ccc23)CC1 [Capivasertib] + CC(C)n1c(=O)n(C)c2cnc3cc(F)c(-c4ccc(OCCCN5CCCCC5)nc4)cc3c21 [AZD1390] (first compound max 10 µM, 7x7, partner max 0.3 µM) | -0.0763 | -0.0553 | -0.0887 | -0.0336 | -0.0422 | -0.0528 | -0.0825 | -0.0671 | -0.0477 | -0.0178 | -0.0866 | -0.0484 | -0.0592 | -0.036 | -0.0843 | -0.0165 | 0.0156 | -0.0646 | -0.055 | -0.0399
12 | NC1(C(=O)N[C@@H](CCO)c2ccc(Cl)cc2)CCN(c2ncnc3[nH]ccc23)CC1 [Capivasertib] + CCN(CCO)CCCOc1ccc2c(Nc3cc(CC(=O)Nc4cccc(F)c4)[nH]n3)ncnc2c1 [AZD2811] (first compound max 10 µM, 7x7, partner max 1 µM) | -0.0112 | -0.0427 | -0.162 | 0.0072 | -0.0309 | -0.0573 | 0.0856 | -0.065 | -0.0711 | -0.0208 | -0.0168 | 0.0232 | -0.0385 | -0.0021 | -0.0899 | -0.0303 | -0.024 | 0.0383 | 0.008 | -0.0143
13 | NC1(C(=O)N[C@@H](CCO)c2ccc(Cl)cc2)CCN(c2ncnc3[nH]ccc23)CC1 [Capivasertib] + COc1nnc2ccc(N3CCC(c4ccc(OCCN5CCN(C)C(=O)[C@H]5C)cc4)CC3)nn12 [AZD5153] (first compound max 10 µM, 7x7, partner max 1 µM) | -0.0126 | -0.0264 | -0.0867 | 0.0597 | -0.0448 | 0.0157 | 0.0995 | 0.0078 | -0.0451 | -0.0995 | 0.0021 | -0.0038 | 0.0026 | 0.0306 | 0.0292 | 0.0566 | -0.0938 | -0.0587 | 0.0623 | 0.0557
14 | NC1(C(=O)N[C@@H](CCO)c2ccc(Cl)cc2)CCN(c2ncnc3[nH]ccc23)CC1 [Capivasertib] + C[C@@H]1COCCN1C2=NC(=NC(=C2)C3(CC3)[S@](=N)(=O)C)C4=C5C=CNC5=NC=C4 [AZD6738] (first compound max 10 µM, 7x7, partner max 10 µM) | -0.0742 | 0.0194 | -0.0735 | -0.0262 | -0.0084 | -0.0125 | -0.0889 | -0.0637 | -0.124 | -0.0078 | -0.0166 | -0.0434 | -0.0471 | -0.0104 | -0.103 | -0.0189 | -0.0645 | -0.0553 | 0.0024 | -0.054
15 | NC1(C(=O)N[C@@H](CCO)c2ccc(Cl)cc2)CCN(c2ncnc3[nH]ccc23)CC1 [Capivasertib] + Cn1cnc2c(F)c(Nc3ccc(Br)cc3Cl)c(C(=O)NOCCO)cc21 [Selumetinib] (first compound max 10 µM, 7x7, partner max 10 µM) | 0.0212 | 0.0018 | -0.0242 | 0.108 | -0.0255 | -0.0225 | 0.0075 | 0.0221 | 0.0373 | -0.0045 | 0.0534 | 0.0101 | -0.0255 | 0.0387 | -0.0427 | 0.0313 | 0.0433 | -0.0478 | 0.0687 | 0.0042

Reference: the supplement of paper PMC11061612
